Experimental findings from patent publication US12660819B2, “Herbicidal derivatives” (SYNGENTA CROP PROTECTION AG, priority 2020, dated 2026) are described below.

Common to all, as to assay type: in vivo
The subject of experiment [1] is Setaria faberi (SETFA). The experiment can be described thus: Pre-emergence Test (glasshouse, percentage damage to the plant). The settings on record: 1000 g/ha unless otherwise stated, five-point scale.
Experiment [2] deals with Echinochloa crus-galli (ECHCG). The experiment is described as above. The note with it: 1000 g/ha unless otherwise stated, five-point scale.
Experiment [3] relates to Abutilon theophrasti (ABUTH). The description is as above. The note with it: 1000 g/ha unless otherwise stated, five-point scale.
In experiment [4] the test system is Abutilon theophrasti (ABUTH). The experiment can be described thus: Post-emergence Test (glasshouse, percentage damage to the plant). The settings on record: post-emergence spray, 1000 g/ha unless otherwise stated, evaluated after 13 days. An outline of the steps:
(§1)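 Sown pots; spray 1000 g/ha (unless stated) in acetone/water 50:50 + 0.5% Tween 20; glasshouse 24/16 °C, 14 h light, 65% RH; watered twice daily; % damage read at 13 days, scored 1–5.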

Experiment [5] relates to Ipomoea hederacea (IPOHE). The experiment is described as above. The settings on record: post-emergence spray, 1000 g/ha unless otherwise stated, evaluated after 13 days. Put shortly: (§2)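 Spray treatment of sown glasshouse pots at 1000 g/ha (default rate), vehicle acetone/water 50:50 plus 0.5% Tween 20. Read-out: percentage damage after 13 days, converted to a score where 5 denotes 81-100% and 1 denotes 0-20%.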

Experiment [6] concerns Echinochloa crus-galli (ECHCG). The experiment is described as above. The settings on record: post-emergence spray, 1000 g/ha unless otherwise stated, evaluated after 13 days. An outline of the steps: as §1
Experiment [7] has as its system Setaria faberi (SETFA). Described as above. The note with it: post-emergence spray, 1000 g/ha unless otherwise stated, evaluated after 13 days. Put shortly: as §2
Experiment [8] deals with Zea mays (ZEAMX). The description is as above. The settings on record: post-emergence spray, 1000 g/ha unless otherwise stated, evaluated after 13 days. Put shortly:
as §2

Experiment [9] deals with Amaranthus retoflexus (AMARE). Described as above. The settings on record: post-emergence spray, 1000 g/ha unless otherwise stated, evaluated after 13 days. An outline of the steps: as §1
Experiment [10] concerns Ipomoea hederacea (IPOHE). The experiment can be described thus: Pre-emergence Test (glasshouse, percentage damage to the plant). The settings on record: 1000 g/ha unless otherwise stated, five-point scale.
Experiment [11] has as its system Amaranthus retoflexus (AMARE). The description is as above. The note with it: 1000 g/ha unless otherwise stated, five-point scale.
Experiment [12] has as its system Zea mays (ZEAMX). The description is as above. The settings on record: 1000 g/ha unless otherwise stated, five-point scale.

The structures appear in SMILES notation.

On to `CCn1c(C)c(-c2cc(F)cc(OCC(F)(F)F)c2)c(=O)c(C(=O)O)c1-c1ccc(Cl)c(Cl)c1` [Compound 94, 2-(3,4-dichlorophenyl)-1-ethyl-5-[3-fluoro-5-(2,2,2-trifluoroethoxy)phenyl]-6-methyl-4-oxo-pyridine-3-carboxylic acid], for which the “percentage damage to the plant, SETFA” value with Setaria faberi (SETFA) [1] is on record as 1 (1=0-20%). Moreover, the “percentage damage to the plant, ECHCG” value in experiment [2] is on record as 1 (1=0-20%). The “percentage damage to the plant, ABUTH” value in experiment [3] was 1 (1=0-20%). Further, the “Post-emergence Test ABUTH, percentage damage to the plant (five-point scale)” value in [4] is listed as 1 (1=0-20%). In addition, the “Post-emergence Test IPOHE, percentage damage to the plant (five-point scale)” value in experiment [5] is reported as 1 (1=0-20%). Besides, the “Post-emergence Test ECHCG, percentage damage to the plant (five-point scale)” value in experiment [6] is on record as 1 (1=0-20%). Besides, in the experiment with Setaria faberi (SETFA) [7], the “Post-emergence Test SETFA, percentage damage to the plant (five-point scale)” value was 1 (1=0-20%). Further, the “Post-emergence Test ZEAMX, percentage damage to the plant (five-point scale)” value in the experiment with Zea mays (ZEAMX) [8] is 1 (1=0-20%). Besides, the “Post-emergence Test AMARE, percentage damage to the plant (five-point scale)” value in experiment [9] is 1 (1=0-20%). The “percentage damage to the plant, IPOHE” value in [10] was 1 (1=0-20%). Besides, in [11], the “percentage damage to the plant, AMARE” value is given as 1 (1=0-20%). The “percentage damage to the plant, ZEAMX” value in the experiment with Zea mays (ZEAMX) [12] is listed as 1 (1=0-20%).

As to `CCn1c(C)c(-c2ccc(OC(F)(F)F)cc2)c(=O)c(C(=O)O)c1-c1ccc(Cl)c(Cl)c1` [Compound 95, 2-(3,4-dichlorophenyl)-1-ethyl-6-methyl-4-oxo-5-[4-(trifluoromethoxy)phenyl]pyridine-3-carboxylic acid], the “percentage damage to the plant, SETFA” value with Setaria faberi (SETFA) [1] is 4 (4=61-80%). Besides, in [2], the “percentage damage to the plant, ECHCG” value is on record as 2 (2=21-40%). The “percentage damage to the plant, ABUTH” value in experiment [3] is on record as 1 (1=0-20%). For the same compound, in experiment [4], the “Post-emergence Test ABUTH, percentage damage to the plant (five-point scale)” value was 3 (3=41-60%). Besides, the “Post-emergence Test IPOHE, percentage damage to the plant (five-point scale)” value in experiment [5] is on record as 2 (2=21-40%). In [6], the “Post-emergence Test ECHCG, percentage damage to the plant (five-point scale)” value was 3 (3=41-60%). For the same compound, the “Post-emergence Test SETFA, percentage damage to the plant (five-point scale)” value in the experiment on Setaria faberi (SETFA) [7] is listed as 3 (3=41-60%). In addition, in the experiment on Zea mays (ZEAMX) [8], the “Post-emergence Test ZEAMX, percentage damage to the plant (five-point scale)” value was 2 (2=21-40%). For the same compound, the “Post-emergence Test AMARE, percentage damage to the plant (five-point scale)” value in [9] is given as 3 (3=41-60%). Moreover, the “percentage damage to the plant, IPOHE” value in experiment [10] is 1 (1=0-20%). In [11], the “percentage damage to the plant, AMARE” value is 1 (1=0-20%). In the experiment with Zea mays (ZEAMX) [12], the “percentage damage to the plant, ZEAMX” value is listed as 1 (1=0-20%).

Turning to `CCOc1ccc(-c2c(C)n(CC)c(-c3ccc(Cl)c(Cl)c3)c(C(=O)O)c2=O)cc1` [Compound 96, 2-(3,4-dichlorophenyl)-5-(4-ethoxyphenyl)-1-ethyl-6-methyl-4-oxo-pyridine-3-carboxylic acid], in the experiment on Setaria faberi (SETFA) [1], the “percentage damage to the plant, SETFA” value is 2 (2=21-40%). Also, the “percentage damage to the plant, ECHCG” value in experiment [2] is on record as 1 (1=0-20%). Also, in experiment [3], the “percentage damage to the plant, ABUTH” value is 1 (1=0-20%). Moreover, the “Post-emergence Test ABUTH, percentage damage to the plant (five-point scale)” value in [4] is 4 (4=61-80%). The “Post-emergence Test IPOHE, percentage damage to the plant (five-point scale)” value in experiment [5] is on record as 3 (3=41-60%). In addition, the “Post-emergence Test ECHCG, percentage damage to the plant (five-point scale)” value in [6] was 2 (2=21-40%). The “Post-emergence Test SETFA, percentage damage to the plant (five-point scale)” value in the experiment with Setaria faberi (SETFA) [7] is 3 (3=41-60%). Further, the “Post-emergence Test ZEAMX, percentage damage to the plant (five-point scale)” value in the experiment on Zea mays (ZEAMX) [8] is given as 2 (2=21-40%). Also, the “Post-emergence Test AMARE, percentage damage to the plant (five-point scale)” value in experiment [9] is recorded as 1 (1=0-20%). The “percentage damage to the plant, IPOHE” value in experiment [10] was 1 (1=0-20%). Further, the “percentage damage to the plant, AMARE” value in experiment [11] was 1 (1=0-20%). Besides, in the experiment on Zea mays (ZEAMX) [12], the “percentage damage to the plant, ZEAMX” value was 1 (1=0-20%).

Turning to `CCOc1cccc(-c2c(C)n(CC)c(-c3ccc(Cl)c(Cl)c3)c(C(=O)O)c2=O)c1` [Compound 98, 2-(3,4-dichlorophenyl)-5-(3-ethoxyphenyl)-1-ethyl-6-methyl-4-oxo-pyridine-3-carboxylic acid], the “percentage damage to the plant, SETFA” value in the experiment on Setaria faberi (SETFA) [1] is reported as 3 (3=41-60%). Moreover, the “percentage damage to the plant, ECHCG” value in [2] is recorded as 1 (1=0-20%). The “percentage damage to the plant, ABUTH” value in experiment [3] is on record as 1 (1=0-20%). The “Post-emergence Test ABUTH, percentage damage to the plant (five-point scale)” value in [4] is given as 2 (2=21-40%). Further, in [5], the “Post-emergence Test IPOHE, percentage damage to the plant (five-point scale)” value is 2 (2=21-40%). For the same compound, the “Post-emergence Test ECHCG, percentage damage to the plant (five-point scale)” value in experiment [6] is listed as 1 (1=0-20%). Further, the “Post-emergence Test SETFA, percentage damage to the plant (five-point scale)” value in the experiment with Setaria faberi (SETFA) [7] was 1 (1=0-20%). The “Post-emergence Test ZEAMX, percentage damage to the plant (five-point scale)” value in the experiment with Zea mays (ZEAMX) [8] is 1 (1=0-20%). Besides, the “Post-emergence Test AMARE, percentage damage to the plant (five-point scale)” value in [9] is 1 (1=0-20%). Moreover, in experiment [10], the “percentage damage to the plant, IPOHE” value is 1 (1=0-20%). In addition, the “percentage damage to the plant, AMARE” value in experiment [11] is 2 (2=21-40%). Besides, the “percentage damage to the plant, ZEAMX” value with Zea mays (ZEAMX) [12] was 1 (1=0-20%).

On to `CCn1c(C)c(-c2ccc(OC)c(OC)c2)c(=O)c(C(=O)O)c1-c1ccc(Cl)c(Cl)c1` [Compound 99, 2-(3,4-dichlorophenyl)-5-(3,4-dimethoxyphenyl)-1-ethyl-6-methyl-4-oxo-pyridine-3-carboxylic acid], for which the “percentage damage to the plant, SETFA” value in the experiment with Setaria faberi (SETFA) [1] is on record as 4 (4=61-80%). Besides, in experiment [2], the “percentage damage to the plant, ECHCG” value is 3 (3=41-60%). For the same compound, in experiment [3], the “percentage damage to the plant, ABUTH” value is listed as 2 (2=21-40%). Besides, the “Post-emergence Test ABUTH, percentage damage to the plant (five-point scale)” value in experiment [4] is 3 (3=41-60%). Also, the “Post-emergence Test IPOHE, percentage damage to the plant (five-point scale)” value in [5] is on record as 2 (2=21-40%). Further, the “Post-emergence Test ECHCG, percentage damage to the plant (five-point scale)” value in experiment [6] is 4 (4=61-80%). The “Post-emergence Test SETFA, percentage damage to the plant (five-point scale)” value in the experiment on Setaria faberi (SETFA) [7] is recorded as 4 (4=61-80%). For the same compound, the “Post-emergence Test ZEAMX, percentage damage to the plant (five-point scale)” value in the experiment with Zea mays (ZEAMX) [8] is recorded as 2 (2=21-40%). Besides, in experiment [9], the “Post-emergence Test AMARE, percentage damage to the plant (five-point scale)” value is 3 (3=41-60%). Moreover, the “percentage damage to the plant, IPOHE” value in [10] was 1 (1=0-20%). In experiment [11], the “percentage damage to the plant, AMARE” value was 2 (2=21-40%). The “percentage damage to the plant, ZEAMX” value with Zea mays (ZEAMX) [12] is 2 (2=21-40%).

`CCn1c(C)c(-c2ccc(OC)c(C)c2)c(=O)c(C(=O)O)c1-c1ccc(Cl)c(Cl)c1` [Compound 100, 2-(3,4-dichlorophenyl)-1-ethyl-5-(4-methoxy-3-methyl-phenyl)-6-methyl-4-oxo-pyridine-3-carboxylic acid]: in the experiment on Setaria faberi (SETFA) [1], the “percentage damage to the plant, SETFA” value is on record as 4 (4=61-80%). Further, the “percentage damage to the plant, ECHCG” value in [2] is on record as 1 (1=0-20%). The “percentage damage to the plant, ABUTH” value in experiment [3] is listed as 1 (1=0-20%). Also, in experiment [4], the “Post-emergence Test ABUTH, percentage damage to the plant (five-point scale)” value is on record as 3 (3=41-60%). The “Post-emergence Test IPOHE, percentage damage to the plant (five-point scale)” value in [5] is recorded as 1 (1=0-20%). Besides, the “Post-emergence Test ECHCG, percentage damage to the plant (five-point scale)” value in [6] is 1 (1=0-20%). Also, the “Post-emergence Test SETFA, percentage damage to the plant (five-point scale)” value in the experiment on Setaria faberi (SETFA) [7] is reported as 3 (3=41-60%). Besides, in the experiment with Zea mays (ZEAMX) [8], the “Post-emergence Test ZEAMX, percentage damage to the plant (five-point scale)” value is on record as 3 (3=41-60%). In addition, the “Post-emergence Test AMARE, percentage damage to the plant (five-point scale)” value in [9] is listed as 2 (2=21-40%). The “percentage damage to the plant, IPOHE” value in experiment [10] was 1 (1=0-20%). For the same compound, in [11], the “percentage damage to the plant, AMARE” value is on record as 1 (1=0-20%). In the experiment with Zea mays (ZEAMX) [12], the “percentage damage to the plant, ZEAMX” value is on record as 1 (1=0-20%).
